The numbers were not newly measured in EP4302832A1, “PALBOCICLIB FORMULATION CONTAINING GLUCONO DELTA LACTONE” (Lotus Pharmaceutical Co., Ltd., priority 2022, dated 2024), which cites them from elsewhere.

For data set [1] the following is noted: low pH (2.1-4.5).

Read-outs that look alike come from different tables or passages of the source.

In general, pKa refers to the pH at which an ionisable group is half protonated. Take `CC(=O)c1c(C)c2cnc(Nc3ccc(N4CCNCC4)cn3)nc2n(C2CCCC2)c1=O` [Palbociclib, 6-acetyl-8-cyclopentyl-5-methyl-2-(5-piperazin-1-yl-pyridin-2-ylamino)-8H-pyrido[2,3-d]-pyrimidin-7-one]: the pKa is listed as approximately 4.1 (the pyridine nitrogen) and “approximately 7.3” (the secondary piperazine nitrogen). Moreover, in data set [1], the solubility result was “water soluble”.
